The results in this text go back to US11214540B2, “Compositions for treating neurodegenerative diseases” (COGNITION THERAPEUTICS, INC., priority 2017, dated 2022).

This data set can be described thus: log P. The class given is physicochemical. From the text:
The term “log P” refers to the partition coefficient of a compound. The partition coefficient is the ratio of concentrations of un-ionized compound in each of two solution phases, for example, octanol and water. To measure the partition coefficient of ionizable solute compounds, the pH of the aqueous phase is adjusted such that the predominant form of the compound is un-ionized. The logarithm of the ratio of concentrations of the un-ionized solute compound in the solvents is called log P. The log P is a measure of lipophilicity. For example, log Poct/wat=log([solute]octanol/[solute]un-ionized,water).
Combined Results for particular compounds described herein, with respect to log P, membrane trafficking (uM), sigma-2 receptor affinity, sigma-1 receptor affinity microsomal stability in mouse liver microsomes (MLM) (t1/2, min), t1/2 normalized to CT)10914 and in vitro toxicity potassium channel hERG (IC50, nM) are provided in Table 1: […]
As usually defined, the log P is the decadic logarithm of the partition coefficient of the neutral form, usually between octanol and water. Read a low log P as a more hydrophilic compound. On to `CC(C)=CC(CC(C)(C)c1ccc(S(C)(=O)=O)cc1)NCC1CCOCC1` (centres unmarked) [Compound 88], for which the lipophilicity (log P) turned out to be 3.54.
The same measure for `CC(C)=CC(CC(C)(C)c1ccc(S(C)(=O)=O)cc1)N1CCC(C(C)C)CC1` (centres unmarked) [Compound 89]: 5.37.
The figure for `COc1ccc(C(C)(C)CC(c2ccccc2)N2CCCCC2)cc1` (centres unmarked) [Compound 116] is 5.71; for `CC(C)(CC(c1ccccc1)N1CCCCC1)c1ccc(Cl)cc1` (centres unmarked) [Compound 117] it is 6.47; for `COc1ccc(C(C)(C)CC(c2ccccc2)N2CCOCC2)cc1` (centres unmarked) [Compound 118] it is 4.64.
As for `CC(C)(CC(c1ccccc1)N1CCC(C2CCOCC2)CC1)c1ccc(Cl)cc1` (centres unmarked) [Compound 119], the lipophilicity (log P) is reported as 6.67.
With `CC(C)(CC(c1ccccc1)N1CCOCC1)c1ccc(Cl)cc1` (centres unmarked) [Compound 120], the “log P” value came to 5.4.
The same measure for `CC(C)(CC(NCC1CCOCC1)c1ccccc1)c1ccc(Cl)cc1` (centres unmarked) [Compound 121]: 5.66; for `COc1ccc(C(C)(C)CC(c2ccccc2)N2CCC(C3CCOCC3)CC2)cc1` (centres unmarked) [Compound 122]: 5.91; for `CC(C)=CC(CC(C)(C)c1ccc(N2CCOCC2)cc1)N1CCC2(CCOCC2)CC1` (centres unmarked) [Compound 147]: 5.16.
Regarding `CC(C)=CC(CC(C)(C)c1ccc(N2CCOCC2)cc1)N1CCC(C)(O)CC1` (centres unmarked) [Compound 148], the “log P” value was 4.14.
The same measure for `CC(C)=CC(CC(C)(C)c1ccc(F)cc1)N1CCN(S(C)(=O)=O)CC1` (centres unmarked) [Compound 154]: 3.37; for `CC(C)=CC(CC(C)(C)c1ccc(C(F)(F)F)cc1)N1CCN(C(=O)c2ccccc2)CC1` (centres unmarked) [Compound 155]: 6.46; for `CC(C)=CC(CC(C)(C)c1ccc(Cl)cc1)N1CCN(C(=O)c2ccccc2)CC1` (centres unmarked) [Compound 157]: 6.19.
The same measure for `CC(C)=CC(CC(C)(C)c1ccc(C(F)(F)F)cc1)N1CCC(CCOC(C)C)CC1` (centres unmarked) [Compound 164]: 7.1.
Consider `CC(C)=CC(NCC1CCOCC1)C(C)(C)Oc1ccc(Cl)cc1` (centres unmarked) [Compound 165], for which the “log P” value amounted to 4.6.
For `CC(C)=CC(NCC1CCOCC1)C(C)(C)Oc1ccccc1` (centres unmarked) [Compound 166], the log partition coefficient (log P) is on record as 3.99.
The figure for `COC1CN(C(C=C(C)C)CC(C)(C)c2ccc(Cl)cc2)C1` (centres unmarked) [Compound 167] is 5.1; for `CC(C)=CC(CC(C)(C)c1ccc(OC(C)(C)C)cc1)N1CCC2(CCOCC2)CC1` (centres unmarked) [Compound 168] it is 6.17.
The same measure for `CC(C)=CC(CC(C)(C)c1ccc(OC(C)(C)C)cc1)N1CCC(C)(O)CC1` (centres unmarked) [Compound 169]: 5.15; for `CC(C)=CC(CC(C)(C)c1ccc(OC(C)(C)C)cc1)N1CCC(O)CC1` (centres unmarked) [Compound 170]: 4.87.
The same measure for `COCCCC1CCN(C(C=C(C)C)CC(C)(C)c2ccc(OC(C)C)cc2)CC1` (centres unmarked) [Compound 171]: 6.5; for `COCCNC(C=C(C)C)C(C)(C)Oc1ccccc1` (centres unmarked) [Compound 172]: 3.52.
As to `CC(C)=CC(NCC(C)C)C(C)(C)Oc1ccccc1` (centres unmarked) [Compound 173], the “log P” value amounted to 4.81.
The same measure for `COCCNC(C=C(C)C)C(C)(C)Oc1ccc(F)cc1` (centres unmarked) [Compound 174]: 3.67; for `COCCNC(C=C(C)C)C(C)(C)Oc1ccc(Cl)cc1` (centres unmarked) [Compound 175]: 4.13.
The figure for `CC(C)=CC(NCC(C)C)C(C)(C)Oc1ccc(F)cc1` (centres unmarked) [Compound 176] is 4.96; for `CC(C)=CC(NCC(C)C)C(C)(C)Oc1ccc(Cl)cc1` (centres unmarked) [Compound 177] it is 5.42.
As to `CC(C)=CC(CC(C)(C)c1ccc(OC(C)C)cc1)N1CCC(O)CC1` (centres unmarked) [Compound 178], the “log P” value amounted to 4.59.
Turning to `COCCCC1CCN(C(C=C(C)C)COc2ccc(F)cc2)CC1` (centres unmarked) [Compound 190], the “log P” value was 4.63.
The figure for `CC(C)(CCN1CCC(C2CCOCC2)CC1)c1ccc(Cl)cc1` [Compound 193] is 4.89; for `CC(C)=CC(CC(C)(C)c1ccc(Cl)cc1)N1CCN(C(=O)OC(C)(C)C)CC1` (centres unmarked) [Compound 194] it is 6.01; for `CC(C)=CC(CC(C)(C)c1ccc(F)cc1)N1CCN(S(=O)(=O)N(C)C)CC1` (centres unmarked) [Compound 195] it is 3.36.
Take `CCOC(=O)N1CCN(C(C=C(C)C)CC(C)(C)c2ccc(F)cc2)CC1` (centres unmarked) [Compound 196]: the lipophilicity (log P) amounted to 4.85.
The figure for `COC(=O)N1CCN(C(C=C(C)C)CC(C)(C)c2ccc(Cl)cc2)CC1` (centres unmarked) [Compound 197] is 4.95; for `COC1CCN(C(C=C(C)C)CC(C)(C)c2ccccc2)CC1` (centres unmarked) [Compound 202] it is 4.62.
Turning to `CC(C)=CC(CC(C)(C)c1ccc(F)cc1)N1CCN(C)C(=O)C1` (centres unmarked) [Compound 203], the “log P” value was found to be 3.75.
On to `CC(C)=CC(CC(C)(C)c1ccccc1)N1CCC(C2CCOCC2)CC1` (centres unmarked) [Compound 204], for which the log partition coefficient (log P) amounted to 5.7.
The same measure for `CC(C)=CC(CC(C)(C)c1ccc(C(F)(F)F)cc1)N1CCNC(=O)C1` (centres unmarked) [Compound 206]: 4.26.
With `CC(C)=CC(CC(C)(C)c1ccc(C(F)(F)F)cc1)N1CCN(S(=O)(=O)N(C)C)CC1` (centres unmarked) [Compound 207], the “log P” value is 4.09.
With `CCOC(=O)N1CCN(C(C=C(C)C)CC(C)(C)c2ccc(C(F)(F)F)cc2)CC1` (centres unmarked) [Compound 208], the “log P” value turned out to be 5.58.
The figure for `CC(C)=CC(CC(C)(C)c1ccc(C(F)(F)F)cc1)N1CCN(C(=O)OCC(C)C)CC1` (centres unmarked) [Compound 209] is 6.47.
As for `CC(C)=CC(CC(C)(C)c1ccc(Cl)cc1)N1CCC(O)(c2ccccc2)CC1` (centres unmarked) [Compound 211], the “log P” value came to 6.23.
Take `CCCCC1(O)CCN(C(C=C(C)C)CC(C)(C)c2ccc(Cl)cc2)CC1` (centres unmarked) [Compound 214]: the “log P” value is 6.27.
The same measure for `CC(C)=CC(CC(C)(C)c1ccc(F)cc1)N1CCC(C)(OC(=O)NC(C)C)CC1` (centres unmarked) [Compound 215]: 5.5.
On to `CCCCC1(OC(=O)NC(C)C)CCN(C(C=C(C)C)CC(C)(C)c2ccc(C(F)(F)F)cc2)CC1` (centres unmarked) [Compound 216], for which the “log P” value is recorded as 7.65.
`COCCC1(O)CCN(C(C=C(C)C)CC(C)(C)c2ccccc2)CC1` (centres unmarked) [Compound 219]: the log partition coefficient (log P) is 3.91.
The same measure for `CC(C)=CC(CC(C)(C)c1ccccc1)N1CCC(O)(c2ccccc2)CC1` (centres unmarked) [Compound 220]: 5.62.
Turning to `CC(C)=CC(CC(C)(C)c1ccc(F)cc1)N1CCC(O)(c2ccccc2)CC1` (centres unmarked) [Compound 221], the “log P” value was 5.76.
The figure for `CCCCC1(O)CCN(C(C=C(C)C)CC(C)(C)c2ccc(F)cc2)CC1` (centres unmarked) [Compound 222] is 5.81; for `CCCCC1(O)CCN(C(C=C(C)C)CC(C)(C)c2ccccc2)CC1` (centres unmarked) [Compound 223] it is 5.67.
Take `CC(C)=CC(CC(C)(C)c1ccc(Cl)cc1)N1CCNC(=O)C1` (centres unmarked) [Compound 224]: the “log P” value came to 3.98.
The figure for `CCCCC1(OC(=O)NC(C)C)CCN(C(C=C(C)C)CC(C)(C)c2ccc(Cl)cc2)CC1` (centres unmarked) [Compound 225] is 7.37; for `CC(C)=CC(CC(C)(C)c1ccccc1)N1CCNC(=O)C1` (centres unmarked) [Compound 227] it is 3.38; for `CC(C)=CC(CC(C)(C)c1ccc(C(F)(F)F)cc1)N1CCC(C)(OC(=O)NC(C)C)CC1` (centres unmarked) [Compound 228] it is 6.24.
The figure for `COCC1CCCN1C(C=C(C)C)CC(C)(C)c1ccc(Cl)cc1` (centres unmarked) [Compound 234] is 5.68; for `COC[C@H]1CCCN1[C@H](C=C(C)C)CC(C)(C)c1ccc(Cl)cc1` [Compound 235] it is 5.68.
Turning to `CC(C)=CC(CC(C)(C)c1ccc(Cl)cc1)N1CCC[C@H]1CO` (some centres unmarked) [Compound 237], the log partition coefficient (log P) worked out at 5.04.
With `CC(C)=C[C@H](CC(C)(C)c1ccc(Cl)cc1)N1CCC[C@@H]1CO` [Compound 240], the “log P” value is 5.04.
In the case of `CC(C)=C[C@@H](CC(C)(C)c1ccc(F)cc1)N1CCC[C@@H]1CO` [Compound 241], the lipophilicity (log P) is recorded as 4.57.
With `CC(C)=C[C@H](CC(C)(C)c1ccc(C(F)(F)F)cc1)N1CCC[C@@H]1CO` [Compound 243], the “log P” value came out at 5.31.
The same measure for `COC[C@H]1CCCN1C(C=C(C)C)CC(C)(C)c1ccc(Cl)cc1` (some centres unmarked) [Compound 246]: 5.68; for `COC[C@H]1CCCN1C(C=C(C)C)CC(C)(C)c1ccc(C(F)(F)F)cc1` (some centres unmarked) [Compound 247]: 5.95.
Turning to `CCOC(=O)C1CCN(C(C=C(C)C)CC(C)(C)c2ccc(Cl)cc2)CC1` (centres unmarked) [Compound 248], the “log P” value was 5.84.
The same measure for `COC[C@H]1CCCN1C(C=C(C)C)CC(C)(C)c1ccc(F)cc1` (some centres unmarked) [Compound 251]: 5.22.
The figure for `COc1cc(CCC(C)(C)N2Cc3cccc(C(=O)N4CCN(C(=O)CN(C)C)CC4)c3C2)ccc1O` [Compound 258] is 2.62; for `COc1cc(CCC(C)(C)N2Cc3cccc(C(=O)N4CCN(C(=O)[C@@H](N)Cc5ccccc5)CC4)c3C2)ccc1O` [Compound 259] it is 4.03; for `COc1cc(CCC(C)(C)N2Cc3cccc(C(=O)N4CCN(C(=O)[C@@H]5CCCN5)CC4)c3C2)ccc1O` [Compound 260] it is 2.46.
The figure for `COCCOCCC1CCN([C@H](C=C(C)C)CC(C)(C)c2ccc(C(F)(F)F)cc2)CC1` [Compound 263] is 6.28; for `COCCOCCC1CCN([C@@H](C=C(C)C)CC(C)(C)c2ccc(C(F)(F)F)cc2)CC1` [Compound 264] it is 6.28.
`CC(C)=C[C@H](CC(C)(C)c1ccc(C(F)(F)F)cc1)N1CCC(C)(O)CC1` [Compound 265]: the “log P” value was found to be 5.13.
